Several values for one entry are separate records, joined by “and”; a condition that tells them apart may be missing. Equal values may be shown once. Toxic doses and inconclusive results are not listed. Cut-off read from the data, not from the text of the source: active = T/C of 150% or more; inactive = T/C below 125%.
Tested on: L1210 leukemia ip in BDF1 mice, survival T/C
Experiment: NCI In Vivo Anticancer Drug Screen. Data for tumor model L1210 Leukemia (intraperitoneal) in B6D2F1 (BDF1) mice
Settings: endpoint: mean survival time, higher = longer survival
Procedure, shortened: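 Read-out is survival time, reported as the treated-group measurement over the vehicle-control measurement.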

[1] = dose: 50.0 mg/kg/injection, schedule: Q04DX003 (ip), vehicle: saline
[2] = dose: 100.0 mg/kg/injection, schedule: Q04DX003 (ip), vehicle: saline
[3] = dose: 100.0 mg/kg/injection, schedule: Q01DX001 (ip), vehicle: saline
[4] = dose: 200.0 mg/kg/injection, schedule: Q01DX001 (ip), vehicle: saline
[5] = dose: 400.0 mg/kg/injection, schedule: Q01DX001 (ip), vehicle: saline
[6] = dose: 50.0 mg/kg/injection, schedule: Q01DX009 (ip), vehicle: saline with Tween-80
[7] = dose: 100.0 mg/kg/injection, schedule: Q01DX009 (ip), vehicle: saline with Tween-80
[8] = dose: 200.0 mg/kg/injection, schedule: Q01DX009 (ip), vehicle: saline with Tween-80
[9] = dose: 100.0 mg/kg/injection, schedule: Q04DX002 (ip), vehicle: saline with Tween-80
[10] = dose: 200.0 mg/kg/injection, schedule: Q04DX002 (ip), vehicle: saline with Tween-80
[11] = dose: 400.0 mg/kg/injection, schedule: Q04DX002 (ip), vehicle: saline with Tween-80

Measured: T/C

CCCC(C(=O)OCCN(CC)CC)(c1ccccc1)c1ccccc1
inactive: dose: 6.25 mg/kg/injection, schedule: Q01DX009 (ip), vehicle: saline 106 % of control | dose: 12.5 mg/kg/injection, schedule: Q01DX009 (ip), vehicle: saline 92 % of control | dose: 12.5 mg/kg/injection, schedule: Q04DX003 (ip), vehicle: saline 102 % of control | dose: 25.0 mg/kg/injection, schedule: Q01DX009 (ip), vehicle: saline 93 % of control | dose: 25.0 mg/kg/injection, schedule: Q04DX003 (ip), vehicle: saline 116 % of control | dose: 50.0 mg/kg/injection, schedule: Q01DX009 (ip), vehicle: saline 93 % of control | [1] 100 % of control | [2] 102 % of control

NS(=O)(=O)c1cc(Br)c(N=Nc2ccc(O)c3ncccc23)c(Br)c1
inactive: [3] 100 % of control | [4] 100 % of control | [5] 108 % of control

O=C(COc1ccc(Cl)cc1Cl)Nc1ccc2ccccc2c1
inactive: dose: 100.0 mg/kg/injection, schedule: Q04DX002 (ip), vehicle: saline 95 % of control and 96 % of control | dose: 200.0 mg/kg/injection, schedule: Q04DX002 (ip), vehicle: saline 103 % of control | dose: 400.0 mg/kg/injection, schedule: Q04DX002 (ip), vehicle: saline 107 % of control and 92 % of control

O=c1[nH]cnc2c1ncn2C1CCCC1
inactive: dose: 18.12 mg/kg/injection, schedule: Q01DX Z (ip), vehicle: carboxymethylcellulose (CMC) 98 % of control | dose: 36.25 mg/kg/injection, schedule: Q01DX Z (ip), vehicle: carboxymethylcellulose (CMC) 98 % of control | dose: 36.25 mg/kg/injection, schedule: Q01DX Z (oral), vehicle: carboxymethylcellulose (CMC) 110 % of control | dose: 72.5 mg/kg/injection, schedule: Q01DX Z (ip), vehicle: carboxymethylcellulose (CMC) 93 % of control | dose: 72.5 mg/kg/injection, schedule: Q01DX Z (oral), vehicle: carboxymethylcellulose (CMC) 98 % of control | dose: 145.0 mg/kg/injection, schedule: Q01DX Z (ip), vehicle: carboxymethylcellulose (CMC) 98 % of control | dose: 145.0 mg/kg/injection, schedule: Q01DX Z (oral), vehicle: carboxymethylcellulose (CMC) 102 % of control | dose: 290.0 mg/kg/injection, schedule: Q01DX Z (oral), vehicle: carboxymethylcellulose (CMC) 110 % of control

COc1ccccc1NC(=O)NCc1cc(C)ccc1C
inactive: dose: 100.0 mg/kg/injection, schedule: Q01DX009 (ip), vehicle: Klucel (hydroxypropylcellulose) (HPC) 93 % of control | dose: 200.0 mg/kg/injection, schedule: Q01DX009 (ip), vehicle: Klucel (hydroxypropylcellulose) (HPC) 88 % of control | dose: 400.0 mg/kg/injection, schedule: Q01DX009 (ip), vehicle: Klucel (hydroxypropylcellulose) (HPC) 93 % of control

N=C(N)c1cccc(NC(=O)c2ccc(C(=O)Nc3cccc(C(=N)N)c3)c([N+](=O)[O-])c2)c1
inactive: dose: 1.0 mg/kg/injection, schedule: Q01DX015 (ip), vehicle: water 96 % of control | dose: 2.0 mg/kg/injection, schedule: Q01DX015 (ip), vehicle: water 96 % of control | dose: 4.0 mg/kg/injection, schedule: Q01DX015 (ip), vehicle: water 102 % of control | dose: 8.0 mg/kg/injection, schedule: Q01DX015 (ip), vehicle: water 102 % of control and 109 % of control | dose: 16.0 mg/kg/injection, schedule: Q01DX015 (ip), vehicle: water 115 % of control

O=C(Nc1ccc(Cl)c(C(F)(F)F)c1)Oc1ccccn1
inactive: dose: 12.5 mg/kg/injection, schedule: Q01DX009 (ip), vehicle: saline with Tween-80 101 % of control | dose: 25.0 mg/kg/injection, schedule: Q01DX009 (ip), vehicle: saline with Tween-80 99 % of control | [6] 92 % of control | [7] 93 % of control

CCCCCCCCCCCCCCCCS(=O)(=O)c1ccc(S(=O)(=O)F)cc1NC(=O)C(F)(F)F
inactive: [7] 87 % of control | dose: 100.0 mg/kg/injection, schedule: Q04DX003 (ip), vehicle: saline with Tween-80 92 % of control | [8] 97 % of control | dose: 200.0 mg/kg/injection, schedule: Q04DX003 (ip), vehicle: saline with Tween-80 93 % of control | dose: 400.0 mg/kg/injection, schedule: Q01DX009 (ip), vehicle: saline with Tween-80 105 % of control

COC(=O)CCN(C(=O)c1ccccc1)c1ccccc1C(=O)OC
inactive: dose: 75.0 mg/kg/injection, schedule: Q01DX001 (ip), vehicle: saline 98 % of control | dose: 150.0 mg/kg/injection, schedule: Q01DX001 (ip), vehicle: saline 93 % of control | dose: 300.0 mg/kg/injection, schedule: Q01DX001 (ip), vehicle: saline 86 % of control

O=C(CCCC(=O)N/N=C/C1CC=CCC1)N/N=C\C1CC=CCC1 (centres undefined)
inactive: dose: 50.0 mg/kg/injection, schedule: Q01DX001 (ip), vehicle: other 90 % of control | dose: 100.0 mg/kg/injection, schedule: Q01DX001 (ip), vehicle: other 90 % of control | dose: 400.0 mg/kg/injection, schedule: Q01DX001 (ip), vehicle: other 98 % of control

CCOC(=O)c1ccc(NP(=S)(OCC)OCC)cc1
inactive: [6] 94 % of control | [7] 94 % of control | [8] 96 % of control

OCc1cc2ccccc2cc1F
inactive: [6] 105 % of control | [7] 92 % of control | dose: 100.0 mg/kg/injection, schedule: Q04DX003 (ip), vehicle: acetone 100 % of control | [8] 103 % of control | dose: 200.0 mg/kg/injection, schedule: Q04DX003 (ip), vehicle: acetone 87 % of control

Nc1nc(N)c(CCCOc2ccc(NC(=O)CBr)cc2)c(N)n1
inactive: dose: 12.5 mg/kg/injection, schedule: Q01DX001 (ip), vehicle: Klucel (hydroxypropylcellulose) (HPC) 98 % of control | dose: 25.0 mg/kg/injection, schedule: Q01DX001 (ip), vehicle: Klucel (hydroxypropylcellulose) (HPC) 100 % of control | dose: 50.0 mg/kg/injection, schedule: Q01DX001 (ip), vehicle: Klucel (hydroxypropylcellulose) (HPC) 105 % of control

NNc1nc(Cl)cc2c1ncn2C1OC(CO)C(O)C1O (centres undefined)
inactive: dose: 100.0 mg/kg/injection, schedule: Q01DX005 (ip), vehicle: saline 98 % of control | dose: 200.0 mg/kg/injection, schedule: Q01DX005 (ip), vehicle: saline 113 % of control

O=C(O)/C=C/C(=O)Nc1cccc(NC(=O)/C=C/C(=O)O)c1
inactive: dose: 100.0 mg/kg/injection, schedule: Q04DX003 (ip), vehicle: Klucel (hydroxypropylcellulose) (HPC) 94 % of control | dose: 200.0 mg/kg/injection, schedule: Q04DX003 (ip), vehicle: Klucel (hydroxypropylcellulose) (HPC) 97 % of control | dose: 400.0 mg/kg/injection, schedule: Q04DX003 (ip), vehicle: Klucel (hydroxypropylcellulose) (HPC) 96 % of control

N/C(=N/N=C\c1ccccc1Cl)N/N=C/c1ccccc1Cl
inactive: dose: 15.0 mg/kg/injection, schedule: Q01DX Z (ip), vehicle: carboxymethylcellulose (CMC) 94 % of control | dose: 30.0 mg/kg/injection, schedule: Q01DX Z (ip), vehicle: carboxymethylcellulose (CMC) 100 % of control | dose: 60.0 mg/kg/injection, schedule: Q01DX Z (ip), vehicle: carboxymethylcellulose (CMC) 95 % of control | dose: 120.0 mg/kg/injection, schedule: Q01DX Z (ip), vehicle: carboxymethylcellulose (CMC) 94 % of control | dose: 120.0 mg/kg/injection, schedule: Q01DX Z (oral), vehicle: carboxymethylcellulose (CMC) 100 % of control | dose: 240.0 mg/kg/injection, schedule: Q01DX Z (oral), vehicle: carboxymethylcellulose (CMC) 100 % of control | dose: 960.0 mg/kg/injection, schedule: Q01DX Z (oral), vehicle: carboxymethylcellulose (CMC) 101 % of control

Cc1onc(-c2ccccc2Cl)c1C(=O)NCC(=O)O
inactive: [9] 104 % of control | [10] 100 % of control | [11] 100 % of control

c1cc[c]([Pb]([c]2ccccc2)([c]2ccccc2)[c]2ccccc2)cc1
inactive: dose: 50.0 mg/kg/injection, schedule: Q04DX002 (ip), vehicle: Klucel (hydroxypropylcellulose) (HPC) 103 % of control | dose: 100.0 mg/kg/injection, schedule: Q04DX002 (ip), vehicle: Klucel (hydroxypropylcellulose) (HPC) 103 % of control | dose: 200.0 mg/kg/injection, schedule: Q04DX002 (ip), vehicle: Klucel (hydroxypropylcellulose) (HPC) 113 % of control and 115 % of control | dose: 400.0 mg/kg/injection, schedule: Q04DX002 (ip), vehicle: Klucel (hydroxypropylcellulose) (HPC) 101 % of control

CC(=O)c1ccc2cc(O)ccc2c1
inactive: [1] 101 % of control | [3] 97 % of control | [2] 101 % of control | [4] 101 % of control | dose: 200.0 mg/kg/injection, schedule: Q04DX003 (ip), vehicle: saline 103 % of control | [5] 104 % of control

CCCC(=O)N1CCCCCC1
inactive: [9] 92 % of control | [10] 113 % of control | [11] 95 % of control

From PubChem BioAssay AID248 (DTP/NCI, 2004)
